Molecular target: T1, EGFR TMLRCS (Homo sapiens, UniProt P00533, C797S/L858R/T790M)
T1 construct: host or cells: BaF3-TMLRCS (Ba/F3 cells, kept under puromycin selection)
Assay: HTRF Phospho EGFR TMLRCS Assay (Cellular)
Assay type: cell-based
Details: BaF3-TMLRCS cell line, 4 hours incubation, Phospho-EGFR HTRF readout
Outline: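 BaF3 cells expressing EGFR L858R/T790M/C797S, 20000/well, treated with compound in dose response for 4 h at 37 °C, 5% CO2. After lysis, phospho-EGFR detected by HTRF with cryptate and d2 antibodies over 4 h at room temperature. Signal taken as 665/616 nm ratio ×10000, normalized.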

T1 sequence (P00533 25-1210 T790M/C797S/L858R): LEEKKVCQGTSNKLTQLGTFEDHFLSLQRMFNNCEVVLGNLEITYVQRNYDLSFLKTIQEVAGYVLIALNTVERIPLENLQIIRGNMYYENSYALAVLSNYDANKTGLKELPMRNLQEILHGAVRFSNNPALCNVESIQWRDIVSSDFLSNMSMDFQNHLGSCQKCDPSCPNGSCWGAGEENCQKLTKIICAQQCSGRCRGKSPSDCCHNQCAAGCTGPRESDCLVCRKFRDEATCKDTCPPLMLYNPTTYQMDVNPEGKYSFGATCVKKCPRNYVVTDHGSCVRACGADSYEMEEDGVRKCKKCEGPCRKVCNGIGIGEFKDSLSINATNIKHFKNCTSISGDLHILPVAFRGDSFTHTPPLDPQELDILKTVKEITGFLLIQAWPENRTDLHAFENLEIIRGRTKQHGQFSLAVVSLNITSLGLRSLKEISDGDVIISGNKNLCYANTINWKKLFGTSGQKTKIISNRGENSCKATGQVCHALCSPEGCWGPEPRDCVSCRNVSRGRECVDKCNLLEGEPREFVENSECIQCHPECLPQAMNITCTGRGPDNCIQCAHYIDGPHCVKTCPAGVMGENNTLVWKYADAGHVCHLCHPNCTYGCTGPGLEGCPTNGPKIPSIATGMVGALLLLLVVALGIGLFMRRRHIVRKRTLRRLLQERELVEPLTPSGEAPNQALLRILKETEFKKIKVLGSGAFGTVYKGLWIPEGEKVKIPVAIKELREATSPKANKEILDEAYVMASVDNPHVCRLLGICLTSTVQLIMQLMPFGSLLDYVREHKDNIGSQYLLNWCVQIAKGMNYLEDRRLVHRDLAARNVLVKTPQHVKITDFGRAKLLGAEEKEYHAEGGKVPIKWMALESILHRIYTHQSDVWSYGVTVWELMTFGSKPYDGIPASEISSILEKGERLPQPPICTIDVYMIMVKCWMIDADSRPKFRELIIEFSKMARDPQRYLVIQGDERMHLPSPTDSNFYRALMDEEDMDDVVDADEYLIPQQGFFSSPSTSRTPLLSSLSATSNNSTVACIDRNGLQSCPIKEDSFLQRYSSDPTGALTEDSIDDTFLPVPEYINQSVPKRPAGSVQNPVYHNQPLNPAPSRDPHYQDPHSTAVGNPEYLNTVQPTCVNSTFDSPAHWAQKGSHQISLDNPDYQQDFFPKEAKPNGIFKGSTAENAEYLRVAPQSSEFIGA

Compound	IC50
CCN1CCN(c2ccc(-c3cc(C)c4cn(C(C(=O)Nc5nccs5)c5ncn6c5C[C@@H](F)C6)nc4c3C)cc2)CC1 (stereo partly drawn) [Example 121, 2-(6-(4-(4-Ethylpiperazin-1-yl)phenyl)-4,7-dimethyl-2H-indazol-2-yl)-2-((R)-6-fluoro-6,7-dihydro-5H-pyrrolo[1,2-c]imidazol-1-yl)-N-(thiazol-2-yl)acetamide]	8 nM
CC(O)C1CN(CCc2ccc(-c3cc(Cl)c4cn(C(C(=O)Nc5nccs5)c5ncn6c5C[C@@H](F)C6)nc4c3Cl)cc2)C1 (mixture of isomers) [Example 100, rac-2-(4,7-Dichloro-6-(4-(2-(3-(1-hydroxyethyl)azetidin-1-yl)ethyl)phenyl)-2H-indazol-2-yl)-2-((R)-6-fluoro-6,7-dihydro-5H-pyrrolo[1,2-c]imidazol-1-yl)-N-(thiazol-2-yl)acetamide]	12 nM
O=C(Nc1nccs1)C(c1ncn2c1C[C@@H](F)C2)n1cc2c(Cl)cc(-c3ccc(N4CCN5C[C@H](O)C[C@H]5C4)cc3)c(Cl)c2n1 (stereo partly drawn) [Example 93, 2-(4,7-Dichloro-6-(4-((7R,8aS)-7-hydroxyhexahydropyrrolo[1,2-a]pyrazin-2(1H)-yl)phenyl)-2H-indazol-2-yl)-2-((R)-6-fluoro-6,7-dihydro-5H-pyrrolo[1,2-c]imidazol-1-yl)-N-(thiazol-2-yl)acetamide]	6 nM

Results, then the compound that gave them:

IC50	Compound
4 nM	COCCN1CCC(c2ccc(-c3cc(Cl)c4cn(C(C(=O)Nc5nccs5)c5ncn6c5C[C@@H](F)C6)nc4c3Cl)cc2)CC1 (stereo partly drawn) [Example 45, 2-(4,7-Dichloro-6-(4-(1-(2-methoxyethyl)piperidin-4-yl)phenyl)-2H-indazol-2-yl)-2-((R)-6-fluoro-6,7-dihydro-5H-pyrrolo[1,2-c]imidazol-1-yl)-N-(thiazol-2-yl)acetamide]
12 nM	O=C(Nc1nccs1)C(c1ncn2c1C[C@@H](F)C2)n1cc2c(Cl)cc(-c3ccc(OCCN4CCCC4)cc3)c(Cl)c2n1 (stereo partly drawn) [Example 42, 2-(4,7-Dichloro-6-(4-(2-(pyrrolidin-1-yl)ethoxy)phenyl)-2H-indazol-2-yl)-2-((R)-6-fluoro-6,7-dihydro-5H-pyrrolo[1,2-c]imidazol-1-yl)-N-(thiazol-2-yl)acetamide]
5 nM	O=C(Nc1nccs1)C(c1ncn2c1C[C@@H](F)C2)n1cc2c(Cl)cc(-c3ccc([C@@H]4CCN(CCO)C[C@H]4F)cc3)c(Cl)c2n1 (single isomer, unassigned) [Example 54]
